In assay [1] the target is Tb-labeled inactive PDGFRβ (Homo sapiens (Human), UniProt P09619). The assay is described as follows: PDGFRβ LanthaScreen Assay. The assay is classed as binding. Conditions: read-out: PDGFR Lantha IC50.
The target in another assay is VEGFR2, unphosphorylated (Homo sapiens (Human), UniProt P35968). Put plainly: VEGFR ADP GLO Assay. The assay is classed as biochemical. On the technique in general: ADP-Glo first removes unused ATP, then detects ADP through luciferase.
Sequence of VEGFR2, unphosphorylated (P35968 20-1356): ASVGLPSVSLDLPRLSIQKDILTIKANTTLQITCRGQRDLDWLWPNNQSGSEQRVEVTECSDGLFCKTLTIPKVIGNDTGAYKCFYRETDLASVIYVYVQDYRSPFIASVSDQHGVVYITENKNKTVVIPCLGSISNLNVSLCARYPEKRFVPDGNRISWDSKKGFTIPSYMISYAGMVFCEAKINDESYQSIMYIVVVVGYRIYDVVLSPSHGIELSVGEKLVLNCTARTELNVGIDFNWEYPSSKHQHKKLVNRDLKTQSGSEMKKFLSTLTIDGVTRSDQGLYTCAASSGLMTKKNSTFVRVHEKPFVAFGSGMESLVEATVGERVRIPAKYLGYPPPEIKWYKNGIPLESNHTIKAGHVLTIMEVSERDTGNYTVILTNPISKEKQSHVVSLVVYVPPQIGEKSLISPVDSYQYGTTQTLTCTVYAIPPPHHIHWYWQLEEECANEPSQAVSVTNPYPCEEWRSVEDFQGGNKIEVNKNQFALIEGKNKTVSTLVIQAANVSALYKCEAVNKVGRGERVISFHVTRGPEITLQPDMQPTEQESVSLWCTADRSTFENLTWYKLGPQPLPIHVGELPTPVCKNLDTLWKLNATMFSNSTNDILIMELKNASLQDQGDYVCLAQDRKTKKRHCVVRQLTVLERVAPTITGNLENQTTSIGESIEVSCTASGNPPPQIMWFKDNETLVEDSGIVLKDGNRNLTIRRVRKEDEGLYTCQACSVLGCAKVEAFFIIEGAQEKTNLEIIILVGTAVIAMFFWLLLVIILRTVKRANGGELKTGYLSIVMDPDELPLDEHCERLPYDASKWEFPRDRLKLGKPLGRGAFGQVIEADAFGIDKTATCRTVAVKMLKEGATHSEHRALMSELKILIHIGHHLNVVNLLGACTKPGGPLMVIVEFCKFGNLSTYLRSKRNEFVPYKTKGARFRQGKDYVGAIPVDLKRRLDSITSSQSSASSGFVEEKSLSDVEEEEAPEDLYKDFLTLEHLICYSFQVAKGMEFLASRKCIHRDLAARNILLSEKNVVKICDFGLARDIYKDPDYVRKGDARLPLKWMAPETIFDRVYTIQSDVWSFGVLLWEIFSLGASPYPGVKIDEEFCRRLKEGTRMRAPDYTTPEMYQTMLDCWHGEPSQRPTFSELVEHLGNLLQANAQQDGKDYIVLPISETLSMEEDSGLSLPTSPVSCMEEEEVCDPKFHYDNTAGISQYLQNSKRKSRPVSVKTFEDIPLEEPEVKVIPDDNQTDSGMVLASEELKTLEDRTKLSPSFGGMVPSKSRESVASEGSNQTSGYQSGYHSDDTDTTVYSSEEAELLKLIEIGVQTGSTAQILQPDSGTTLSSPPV

Sequence of Tb-labeled inactive PDGFRβ (P09619 33-1106): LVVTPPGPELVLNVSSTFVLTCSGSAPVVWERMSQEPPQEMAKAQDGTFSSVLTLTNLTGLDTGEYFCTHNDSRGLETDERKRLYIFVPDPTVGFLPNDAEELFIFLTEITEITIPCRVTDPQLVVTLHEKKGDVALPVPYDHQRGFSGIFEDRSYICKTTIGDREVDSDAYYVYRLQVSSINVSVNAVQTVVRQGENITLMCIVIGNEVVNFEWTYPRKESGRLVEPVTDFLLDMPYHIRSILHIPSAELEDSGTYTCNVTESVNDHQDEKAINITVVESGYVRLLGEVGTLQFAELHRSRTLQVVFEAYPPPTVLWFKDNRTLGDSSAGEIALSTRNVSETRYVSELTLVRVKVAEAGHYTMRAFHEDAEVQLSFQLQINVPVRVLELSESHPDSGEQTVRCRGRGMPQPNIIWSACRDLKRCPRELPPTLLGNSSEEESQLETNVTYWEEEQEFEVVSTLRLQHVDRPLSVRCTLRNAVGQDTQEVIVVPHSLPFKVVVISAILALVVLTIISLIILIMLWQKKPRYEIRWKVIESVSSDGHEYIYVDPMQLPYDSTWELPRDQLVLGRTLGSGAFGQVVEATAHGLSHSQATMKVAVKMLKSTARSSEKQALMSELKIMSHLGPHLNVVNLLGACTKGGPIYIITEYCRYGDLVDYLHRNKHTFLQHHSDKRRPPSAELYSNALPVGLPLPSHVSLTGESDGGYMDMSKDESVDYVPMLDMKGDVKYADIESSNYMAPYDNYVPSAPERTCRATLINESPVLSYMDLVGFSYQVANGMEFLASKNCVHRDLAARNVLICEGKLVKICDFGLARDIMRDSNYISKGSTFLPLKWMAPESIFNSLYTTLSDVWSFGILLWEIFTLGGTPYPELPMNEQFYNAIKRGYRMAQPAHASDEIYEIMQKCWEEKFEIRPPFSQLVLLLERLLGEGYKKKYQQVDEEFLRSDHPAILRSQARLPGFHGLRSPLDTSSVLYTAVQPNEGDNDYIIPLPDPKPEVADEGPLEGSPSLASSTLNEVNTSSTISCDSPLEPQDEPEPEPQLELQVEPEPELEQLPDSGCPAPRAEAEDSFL

Consider `Cc1ncc(NC(=O)CN2CC(C)(C)C2)cc1NC(=O)c1cnn2cc(-c3ccnc(N4CCOCC4)c3)sc12` [Example 284, N-(5-(2-(3,3-dimethylazetidin-1-yl)acetamido)-2-methylpyridin-3-yl)-2-(2-morpholinopyridin-4-yl)pyrazolo[5,1-b]thiazole-7-carboxamide], for which the half-inhibitory concentration (IC50) (in general, the point on the concentration scale where inhibition reaches its midpoint) in assay [1] is 2.6 nM; at VEGFR2, unphosphorylated, > 7500 nM.
In the case of `COCCn1cc(-c2cn3ncc(C(=O)Nc4cc(NC(=O)CN5CCC[C@@H]5C)cnc4C)c3s2)cn1` [Example 325, (S)-2-(1-(2-methoxyethyl)-1H-pyrazol-4-yl)-N-(2-methyl-5-(2-(2-methylpyrrolidin-1-yl)acetamido)pyridin-3-yl)pyrazolo[5,1-b]thiazole-7-carboxamide], the IC50 was 16.3 nM in assay [1] and > 7500 nM against VEGFR2, unphosphorylated.
For `Cc1ncc(NC(=O)CN2CCc3ccncc3C2)cc1NC(=O)c1cnn2cc(-c3cnn(C)c3)sc12` [Example 23, N-(5-(2-(3,4-dihydro-2,7-naphthyridin-2 (1H)-yl)acetamido)-2-methylpyridin-3-yl)-2-(1-methyl-1H-pyrazol-4-yl)pyrazolo[5,1-b]thiazole-7-carboxamide] the same measures were 1.3 nM and > 7500 nM.
For the compound `CNC(=O)Cn1cc(-c2cn3ncc(C(=O)Nc4cc(NC(=O)CN5CC(C)(C)C5)cnc4C)c3s2)cn1` [Example 279, N-(5-(2-(3,3-dimethylazetidin-1-yl)acetamido)-2-methylpyridin-3-yl)-2-(1-(2-(methylamino)-2-oxoethyl)-1H-pyrazol-4-yl)pyrazolo[5,1-b]thiazole-7-carboxamide], the IC50 in assay [1] is 8.6 nM; at VEGFR2, unphosphorylated, > 7500 nM.
As for `Cc1ncc(NC(=O)CN2CC(C)(C)C2)cc1NC(=O)c1cnn2cc(-c3cnn(CC(C)O)c3)sc12` (centres unmarked) [Example 281, N-(5-(2-(3,3-dimethylazetidin-1-yl)acetamido)-2-methylpyridin-3-yl)-2-(1-(2-hydroxypropyl)-1H-pyrazol-4-yl)pyrazolo[5,1-b]thiazole-7-carboxamide], the IC50 was 3.8 nM in assay [1] and > 7500 nM against VEGFR2, unphosphorylated.
The corresponding values for `COc1ncccc1-c1cn2ncc(C(=O)Nc3cc(C(=O)NCCN4CCC[C@@H]4C)cnc3C)c2s1` [Example 301, (S)-2-(2-methoxypyridin-3-yl)-N-(2-methyl-5-((2-(2-methylpyrrolidin-1-yl)ethyl)carbamoyl)pyridin-3-yl)pyrazolo[5,1-b]thiazole-7-carboxamide] are 1.4 nM and > 7500 nM.
As to `Cc1ncc(NC(=O)CN2CCCC2(C)C)cc1NC(=O)c1cnn2cc(-n3ncc4cccnc43)sc12` [Example 259, N-(5-(2-(2,2-dimethylpyrrolidin-1-yl)acetamido)-2-methylpyridin-3-yl)-2-(1H-pyrazolo[3,4-b]pyridin-1-yl)pyrazolo[5,1-b]thiazole-7-carboxamide], the IC50 in assay [1] was 2.8 nM; on VEGFR2, unphosphorylated, > 7500 nM.
`COc1ncccc1-c1cn2ncc(C(=O)Nc3cc(NC(=O)CN4CCO[C@H](C)C4)cnc3C)c2s1` [Example 318, (R)-2-(2-methoxypyridin-3-yl)-N-(2-methyl-5-(2-(2-methylmorpholino)acetamido)pyridin-3-yl)pyrazolo[5,1-b]thiazole-7-carboxamide]: the IC50 is 1.9 nM in assay [1] and > 7500 nM against VEGFR2, unphosphorylated.
The corresponding values for `CC(=O)Nc1cncc(-c2cn3ncc(C(=O)Nc4cc(NC(=O)CN5CC(C)(C)C5)cnc4C)c3s2)c1` [Example 277, 2-(5-acetamidopyridin-3-yl)-N-(5-(2-(3,3-dimethylazetidin-1-yl)acetamido)-2-methylpyridin-3-yl)pyrazolo[5,1-b]thiazole-7-carboxamide] are 5.7 nM and > 2500 nM.
On to `Cc1ncc(NC(=O)CN2CC(C)(C)C2)cc1NC(=O)c1cnn2cc(-c3cnn(C4COC4)c3)sc12` [Example 264, N-(5-(2-(3,3-dimethylazetidin-1-yl)acetamido)-2-methylpyridin-3-yl)-2-(1-(oxetan-3-yl)-1H-pyrazol-4-yl)pyrazolo[5,1-b]thiazole-7-carboxamide], for which the IC50 in assay [1] was 6.1 nM; at VEGFR2, unphosphorylated, > 7500 nM.
Turning to `Cc1ncc(NC(=O)CN2CCC3(CCCO3)C2)cc1NC(=O)c1cnn2cc(-c3cnn(C)c3)sc12` (centres unmarked) [Example 21, N-(5-(2-(1-oxa-7-azaspiro[4.4]nonan-7-yl)acetamido)-2-methylpyridin-3-yl)-2-(1-methyl-1H-pyrazol-4-yl)pyrazolo[5,1-b]thiazole-7-carboxamide], the IC50 in assay [1] was 5.7 nM; against VEGFR2, unphosphorylated it was > 7500 nM.
Regarding `COc1ncccc1-c1cn2ncc(C(=O)Nc3cc(NC(=O)C[C@H]4CCCN4C(C)C)cnc3C)c2s1` [Example 309, (R)—N-(5-(2-(1-isopropylpyrrolidin-2-yl)acetamido)-2-methylpyridin-3-yl)-2-(2-methoxypyridin-3-yl)pyrazolo[5,1-b]thiazole-7-carboxamide], the IC50 is 1.5 nM in assay [1] and > 7500 nM on VEGFR2, unphosphorylated.
Turning to `Cc1ncc(NC(=O)CN2CC(C)(C)C2)cc1NC(=O)c1cnn2cc(-c3cnn(CS(C)(=O)=O)c3)sc12` [Example 265, N-(5-(2-(3,3-dimethylazetidin-1-yl)acetamido)-2-methylpyridin-3-yl)-2-(1-((methylsulfonyl)methyl)-1H-pyrazol-4-yl)pyrazolo[5,1-b]thiazole-7-carboxamide], the IC50 in assay [1] was 8.7 nM; against VEGFR2, unphosphorylated it was > 7500 nM.
Take `COc1ncccc1-c1cn2ncc(C(=O)Nc3cc(NC(=O)C[C@@H]4CCCN4C(C)C)cnc3C)c2s1` [Example 323, (S)—N-(5-(2-(1-isopropylpyrrolidin-2-yl)acetamido)-2-methylpyridin-3-yl)-2-(2-methoxypyridin-3-yl)pyrazolo[5,1-b]thiazole-7-carboxamide]: the IC50 in assay [1] was 1.7 nM; at VEGFR2, unphosphorylated, > 7500 nM.
On to `CC[C@H]1CN(CC(=O)Nc2cnc(C)c(NC(=O)c3cnn4cc(-c5cccnc5OC)sc34)c2)CCO1` [Example 311, (S)—N-(5-(2-(2-ethylmorpholino)acetamido)-2-methylpyridin-3-yl)-2-(2-methoxypyridin-3-yl)pyrazolo[5,1-b]thiazole-7-carboxamide], for which the IC50 in assay [1] was 1.3 nM; on VEGFR2, unphosphorylated, > 7500 nM.
With `Cc1ncc(NC(=O)CN2CC(C)(C)C2)cc1NC(=O)c1cnn2cc(-c3cnc4[nH]ncc4c3)sc12` [Example 288, N-(5-(2-(3,3-dimethylazetidin-1-yl)acetamido)-2-methylpyridin-3-yl)-2-(1H-pyrazolo[3,4-b]pyridin-5-yl)pyrazolo[5,1-b]thiazole-7-carboxamide], the IC50 in assay [1] was 11.5 nM; against VEGFR2, unphosphorylated, > 2500 nM.
For the compound `Cc1ncc(NC(=O)CN2CC(C)(C)C2)cc1NC(=O)c1cnn2cc(-c3cnn(CC(N)=O)c3)sc12` [Example 267, 2-(1-(2-amino-2-oxoethyl)-1H-pyrazol-4-yl)-N-(5-(2-(3,3-dimethylazetidin-1-yl)acetamido)-2-methylpyridin-3-yl)pyrazolo[5,1-b]thiazole-7-carboxamide], the IC50 in assay [1] is 13.7 nM; on VEGFR2, unphosphorylated, > 7500 nM.
For `CC(=O)Nc1cc(-c2cn3ncc(C(=O)Nc4cc(NC(=O)CN5CC(C)(C)C5)cnc4C)c3s2)ccn1` [Example 273, 2-(2-acetamidopyridin-4-yl)-N-(5-(2-(3,3-dimethylazetidin-1-yl)acetamido)-2-methylpyridin-3-yl)pyrazolo[5,1-b]thiazole-7-carboxamide] the same measures were 3.6 nM and > 7500 nM.
On to `Cc1ncc(NC(=O)C(C)N2CCCCCC2)cc1NC(=O)c1cnn2cc(-c3cnn(C)c3)sc12` (centres unmarked) [Example 306, N-(5-(2-(azepan-1-yl)propanamido)-2-methylpyridin-3-yl)-2-(1-methyl-1H-pyrazol-4-yl)pyrazolo[5,1-b]thiazole-7-carboxamide], for which the IC50 in assay [1] is 9 nM; at VEGFR2, unphosphorylated, > 7500 nM.
`Cc1ncc(NC(=O)CN2CC(C)(C)C2)cc1NC(=O)c1cnn2cc(-c3cnn(C(F)(F)F)c3)sc12` [Example 269, N-(5-(2-(3,3-dimethylazetidin-1-yl)acetamido)-2-methylpyridin-3-yl)-2-(1-(trifluoromethyl)-1H-pyrazol-4-yl)pyrazolo[5,1-b]thiazole-7-carboxamide]: the IC50 in assay [1] was 71.2 nM; on VEGFR2, unphosphorylated it was > 7500 nM.
`Cc1ncc(NC(=O)CN2CC(C)(C)C2)cc1NC(=O)c1cnn2cc(-c3cnn(C)c3)sc12` [Example 22, N-(5-(2-(3,3-dimethylazetidin-1-yl)acetamido)-2-methylpyridin-3-yl)-2-(1-methyl-1H-pyrazol-4-yl)pyrazolo[5,1-b]thiazole-7-carboxamide]: the IC50 was 8.6 nM in assay [1] and > 7500 nM on VEGFR2, unphosphorylated.
On to `Cc1ncc(NC(=O)CN2CC(C)(C)C2)cc1NC(=O)c1cnn2cc(-c3ccn(S(C)(=O)=O)c3)sc12` [Example 275, N-(5-(2-(3,3-dimethylazetidin-1-yl)acetamido)-2-methylpyridin-3-yl)-2-(1-(methylsulfonyl)-1H-pyrrol-3-yl)pyrazolo[5,1-b]thiazole-7-carboxamide], for which the IC50 in assay [1] was 2.5 nM; against VEGFR2, unphosphorylated, > 7500 nM.
For `Cc1ncc(NC(=O)CN2CC(C)(C)C2)cc1NC(=O)c1cnn2cc(-c3cnn(CC(F)(F)F)c3)sc12` [Example 268, N-(5-(2-(3,3-dimethylazetidin-1-yl)acetamido)-2-methylpyridin-3-yl)-2-(1-(2,2,2-trifluoroethyl)-1H-pyrazol-4-yl)pyrazolo[5,1-b]thiazole-7-carboxamide] the same measures were 14.5 nM and > 7500 nM.
As to `COc1ncccc1-c1cn2ncc(C(=O)Nc3cc(NC(=O)CN4CCC5(CC5)C4)cnc3C)c2s1` [Example 324, N-(5-(2-(5-azaspiro[2.4]heptan-5-yl)acetamido)-2-methylpyridin-3-yl)-2-(2-methoxypyridin-3-yl)pyrazolo[5,1-b]thiazole-7-carboxamide], the IC50 in assay [1] turned out to be 0.7 nM; at VEGFR2, unphosphorylated, 5240 nM.
Consider `Cc1ncc(NC(=O)CN2CC(C)(C)C2)cc1NC(=O)c1cnn2cc(-c3cn[nH]c3)sc12` [Example 271, N-(5-(2-(3,3-dimethylazetidin-1-yl)acetamido)-2-methylpyridin-3-yl)-2-(1H-pyrazol-4-yl)pyrazolo[5,1-b]thiazole-7-carboxamide], for which the IC50 in assay [1] was 2.8 nM; against VEGFR2, unphosphorylated, 5930 nM.
